The text below walks through data of BindingDB's records for doi:10.1080/14756360701536455 (Pcsir Laboratories Complex, 2008).

For assay [1], the target named is Carboxylic ester hydrolase (Equus caballus, UniProt Q9N1N9). The experiment in a line: Cholinesterase Inhibition Assay. The note with it: pH 8; 25 °C. The method, then:
Butyrylcholinesterase activity-inhibiting activities were measured by a slightly modified spectrophotometric method developed by Ellman. DTNB was used for the measurement of cholinesterase activity and butyrylthiocholine chloride was used as a substrate.

The target in assay [2] is T1, Seed linoleate 13S-lipoxygenase-1 (Glycine max, UniProt P08170).
T1 sequence (P08170 whole entry): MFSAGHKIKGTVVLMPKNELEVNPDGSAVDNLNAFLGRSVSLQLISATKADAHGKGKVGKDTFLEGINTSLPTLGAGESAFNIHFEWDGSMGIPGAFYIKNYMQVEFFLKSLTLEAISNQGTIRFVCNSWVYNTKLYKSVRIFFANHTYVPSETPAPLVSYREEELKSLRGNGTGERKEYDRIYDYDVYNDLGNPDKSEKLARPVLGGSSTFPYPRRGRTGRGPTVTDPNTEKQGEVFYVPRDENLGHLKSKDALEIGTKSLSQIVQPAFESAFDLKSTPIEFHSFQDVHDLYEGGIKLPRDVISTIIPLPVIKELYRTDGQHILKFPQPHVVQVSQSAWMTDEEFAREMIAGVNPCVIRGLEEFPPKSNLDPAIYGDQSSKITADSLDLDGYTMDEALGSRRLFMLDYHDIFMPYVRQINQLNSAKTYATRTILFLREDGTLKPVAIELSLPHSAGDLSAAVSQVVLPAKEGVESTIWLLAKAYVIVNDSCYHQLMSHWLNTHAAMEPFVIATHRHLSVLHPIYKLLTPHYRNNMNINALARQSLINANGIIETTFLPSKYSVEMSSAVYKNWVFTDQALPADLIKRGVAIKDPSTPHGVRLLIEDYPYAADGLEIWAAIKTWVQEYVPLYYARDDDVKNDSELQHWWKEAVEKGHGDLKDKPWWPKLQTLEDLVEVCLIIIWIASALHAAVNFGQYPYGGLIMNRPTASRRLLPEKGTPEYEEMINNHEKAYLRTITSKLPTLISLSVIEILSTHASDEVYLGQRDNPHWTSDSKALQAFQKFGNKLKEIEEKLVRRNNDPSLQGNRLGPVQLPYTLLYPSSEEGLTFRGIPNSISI
As to the kind of experiment: Lipoxygenase Inhibition Assay. To be noted: pH 8; 25 °C. The procedure:
LOX inhibiting activity was measured by modifying the spectrophotometric method developed by Tappel.

The structures appear in SMILES notation.

Chain of Carboxylic ester hydrolase (Q9N1N9 whole entry): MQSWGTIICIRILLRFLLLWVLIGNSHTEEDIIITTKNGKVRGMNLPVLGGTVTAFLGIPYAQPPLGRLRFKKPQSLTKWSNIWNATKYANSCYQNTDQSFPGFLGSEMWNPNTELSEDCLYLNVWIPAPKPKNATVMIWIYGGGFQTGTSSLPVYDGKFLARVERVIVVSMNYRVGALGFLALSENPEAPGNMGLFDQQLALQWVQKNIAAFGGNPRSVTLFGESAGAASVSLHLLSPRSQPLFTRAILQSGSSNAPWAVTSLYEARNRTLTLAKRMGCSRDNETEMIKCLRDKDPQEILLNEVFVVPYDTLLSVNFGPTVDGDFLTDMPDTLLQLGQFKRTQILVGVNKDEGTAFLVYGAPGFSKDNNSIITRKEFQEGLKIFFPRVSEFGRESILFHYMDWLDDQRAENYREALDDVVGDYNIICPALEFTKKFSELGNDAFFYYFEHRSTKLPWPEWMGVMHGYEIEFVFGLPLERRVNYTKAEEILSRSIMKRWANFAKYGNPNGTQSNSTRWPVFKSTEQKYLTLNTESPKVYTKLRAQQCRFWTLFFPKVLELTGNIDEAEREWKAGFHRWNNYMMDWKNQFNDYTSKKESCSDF

The term IC50 denotes the concentration needed to halve the response being measured. The low end stands for inhibition by little substance, the high end for a need for much substance. Turning to `C=CC(CC(=NOS(=O)(=O)O)SC1OC(CO)C(O)C(O)C1O)OC(=O)CC1C(=O)Nc2ccccc21` (stereo not drawn) [Epiglucoisatisin, 2], the IC50 in assay [1] was 19.7 µM; in assay [2], 33.7 µM.
On the same counts, the results for `O=S(=O)(O)ON=C(Cc1cc2ccccc2n1S(=O)(=O)O)SC1OC(CO)C(O)C(O)C1O` (stereo not drawn) [Sulfoglucobrassicin, 4] are 24.8 µM and 41.9 µM.
On the same counts, the results for `C=CC(CC(=NOS(=O)(=O)O)SC1OC(CO)C(O)C(O)C1O)OC(=O)CC1(O)C(=O)Nc2ccccc21` (stereo not drawn) [3'-Hydroxyepiglucoisatisin, 3] are 16.3 µM and 30.6 µM.
On the same counts, the results for `O=C(O)CC(=O)OCC1OC(Oc2c[nH]c3ccccc23)C(O)C(=O)C1O` (stereo not drawn) [Isatan A, 5] are 43.4 µM and 49.3 µM.
In the case of `O=C1C(O)C(CO)OC(Oc2c[nH]c3ccccc23)C1O` (stereo not drawn) [Isatan B, 6], the IC50 in assay [1] was found to be 47.6 µM; in assay [2], 53.8 µM.
As for `N#CC(=C1Nc2ccccc2C1=O)c1c[nH]c2ccccc12` [2-[Cyano(3-indolyl)methylene]-3-indolone, 1], the IC50 came out at 23.5 µM in assay [1] and 39.1 µM in assay [2].
As for `COc1ccc2c3c1O[C@H]1C[C@@H](O)C=C(CN(C)C2)[C@H]31` [Galanthamine, 7], the IC50 in assay [1] came to 8.5 µM. This lies in the single-digit micromolar range.
